Laboratory results reported in PMC3728351, “Allosteric Inhibitors of the NS3 Protease from the Hepatitis C Virus” (PLoS ONE, 2013).
Read-outs that look alike come from different tables or passages of the source.

Assays:
[1] = tested on: genotype 1b Con1 HCV subgenomic replicons (Huh 5-2); assay: microbe, parasite or virus in culture; conditions: for EC50: Hepatitis C virus, GETYPE1B, Huh-5-2, 72 h, read-out: EC50, effective concentration 50%
Method: The highly permissive cell clone Huh 7-Lunet, as well as Huh 7 cells containing subgenomic HCV replicons I389luc-ubi-neo/NS3-3′/5.1 (Huh 5-2), I377NS3-3′/wt (Huh 9-13) or I389/hygro-ubi-NS3-3/5.1 (a kind gift from Dr. V. Lohmann and Dr. R. Bartenschlager) have been described recently [25]-[28]. Cells were grown in Dulbecco’s modified Eagle’s medium (DMEM; Gibco, Belgium) supplemented with 10% heat-inactivated fetal bovine serum (PAN-Biotech GmbH, Germany), 1X non-essential amino acids (Gibco), 100 IU/mL penicillin (Gibco), 100 µg/mL streptomycin (Gibco), and 250 µg/mL geneticin (G418; Gibco).
Antiviral assays for assessing the efficacy of the selected compounds were performed as described in literature [23]–[28]. Briefly, Huh 5-2 cells were seeded at a density of 5⋅10^3 cells per well in a tissue culture-treated white 96-well view plate (Techno Plastic Products AG, Switzerland) in complete DMEM supplemented with 250 µg/mL G418. […] After 3 days of incubation at 37°C cell culture medium was removed and luciferase activity was determined using the Bright-Glo™ Luciferase Assay System (Promega Corporation, The Netherlands). The luciferase signal was measured using a Synergy HT Multimode Reader (BioTek Instruments Inc, USA).

[2] = in vitro; format: cell-based; conditions: human
Method: Serial dilutions of the test compounds in complete DMEM (without G418) were added 24 hours after seeding. Cells were allowed to proliferate for 3 days at 37°C, after which the cell number was determined by CellTiter 96 AQueous One Solution Cell Proliferation Assay (Promega Corporation).

[3] = target: T1, NS3 protease wild-type (Zn^+2-free) (Hepatitis C virus genotype 1b, UniProt P26663); assay: biochemical; format: binding
T1 construct: The N-terminal domain from full-length NS3 protein corresponding to NS3 protease was expressed and purified; made in house
T1 sequence (P26663 1027-1208): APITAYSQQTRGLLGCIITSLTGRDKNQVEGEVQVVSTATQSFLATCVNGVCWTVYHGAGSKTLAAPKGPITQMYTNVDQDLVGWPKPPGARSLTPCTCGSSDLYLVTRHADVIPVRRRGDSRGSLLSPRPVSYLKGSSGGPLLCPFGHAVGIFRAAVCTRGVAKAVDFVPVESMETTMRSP
Method: (§1) The N-terminal domain from full-length NS3 protein corresponding to NS3 protease was expressed and purified as described elsewhere, [18].
(§2) Ligand binding to NS3 protease was determined with a high-sensitivity isothermal titration VP-ITC microcalorimeter (MicroCal, USA). Protein samples and reference solutions were properly degassed and carefully loaded into the cells to avoid bubble formation during stirring. Experiments were performed with freshly prepared buffer-exchanged protein solutions, at 25°C in 100 mM sodium acetate, 2 mM EDTA, pH 5. NS3 protease 20 µM solution in the calorimetric cell was titrated with compound 300 µM solution. Control experiments were performed under the same experimental conditions, except for the presence of zinc (no addition of EDTA). The heat evolved after each ligand injection was obtained from the integral of the calorimetric signal. The heat due to the binding reaction was obtained as the difference between the reaction heat and the corresponding heat of dilution, the latter estimated as a constant heat throughout the experiment, and included as an adjustable parameter in the analysis. The association constant (Ka) and the enthalpy change (ΔH) were obtained through non-linear regression of experimental data to a model for a protein with a single ligand binding site. Data were analyzed using software developed in our laboratory implemented in Origin 7 (OriginLab, USA).
(§3) NS3 protease wild-type, pseudo-wild-type (containing the inactivating mutation S139A) and several variants containing drug-resistance associated mutations (R155K, R155Q, A156T, and D168A) were employed for determining the impact of these mutations on the interaction of the selected compounds with the protein (change in dissociation constant).

[4] = target: T2, NS3 protease S139A (pseudo-wild-type) (Hepatitis C virus genotype 1b, UniProt P26663, S1165A); assay: ITC binding to Zn^+2-free NS3 protease, pseudo-wild-type S139A; conditions: 25°C, 100 mM sodium acetate, 2 mM EDTA, pH 5; relative error 15%
T2 construct: The N-terminal domain from full-length NS3 protein corresponding to NS3 protease was expressed and purified; made in house
T2 sequence (P26663 1027-1208 S1165A): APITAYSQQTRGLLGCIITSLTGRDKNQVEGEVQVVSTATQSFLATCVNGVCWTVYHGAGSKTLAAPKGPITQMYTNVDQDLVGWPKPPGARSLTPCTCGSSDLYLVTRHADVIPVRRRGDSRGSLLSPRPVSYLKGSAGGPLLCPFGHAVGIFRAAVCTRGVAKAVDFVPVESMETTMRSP
Method: as §1, §2, §3

[5] = target: T3, NS3 protease S139A/R155K (Hepatitis C virus genotype 1b, UniProt P26663, R1181K/S1165A); assay: ITC binding to Zn^+2-free NS3 protease, S139A/R155K; conditions: 25°C, 100 mM sodium acetate, 2 mM EDTA, pH 5; relative error 15%
T3 construct: The N-terminal domain from full-length NS3 protein corresponding to NS3 protease was expressed and purified; made in house
T3 sequence (P26663 1027-1208 S1165A/R1181K): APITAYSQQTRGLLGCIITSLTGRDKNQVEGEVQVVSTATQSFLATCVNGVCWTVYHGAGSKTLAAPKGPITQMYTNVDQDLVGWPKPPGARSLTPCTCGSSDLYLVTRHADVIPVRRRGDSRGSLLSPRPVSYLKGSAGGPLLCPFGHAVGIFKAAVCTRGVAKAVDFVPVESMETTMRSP
Method: as §1, §2, §3

[6] = target: T4, NS3 protease S139A/D168A (Hepatitis C virus genotype 1b, UniProt P26663, D1194A/S1165A); assay: ITC binding to Zn^+2-free NS3 protease, S139A/D168A; conditions: 25°C, 100 mM sodium acetate, 2 mM EDTA, pH 5; relative error 15%
T4 construct: The N-terminal domain from full-length NS3 protein corresponding to NS3 protease was expressed and purified; made in house
T4 sequence (P26663 1027-1208 S1165A/D1194A): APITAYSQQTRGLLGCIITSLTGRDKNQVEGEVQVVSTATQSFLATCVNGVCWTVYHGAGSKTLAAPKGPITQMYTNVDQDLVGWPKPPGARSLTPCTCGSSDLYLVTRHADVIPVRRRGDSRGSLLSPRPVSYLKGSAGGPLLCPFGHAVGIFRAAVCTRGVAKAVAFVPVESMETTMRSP
Method: as §1, §2, §3

[7] = target: T5, NS3 protease S139A/R155Q (Hepatitis C virus genotype 1b, UniProt P26663, R1181Q/S1165A); assay: ITC binding to Zn^+2-free NS3 protease, S139A/R155Q; conditions: 25°C, 100 mM sodium acetate, 2 mM EDTA, pH 5; relative error 15%
T5 construct: The N-terminal domain from full-length NS3 protein corresponding to NS3 protease was expressed and purified; made in house
T5 sequence (P26663 1027-1208 S1165A/R1181Q): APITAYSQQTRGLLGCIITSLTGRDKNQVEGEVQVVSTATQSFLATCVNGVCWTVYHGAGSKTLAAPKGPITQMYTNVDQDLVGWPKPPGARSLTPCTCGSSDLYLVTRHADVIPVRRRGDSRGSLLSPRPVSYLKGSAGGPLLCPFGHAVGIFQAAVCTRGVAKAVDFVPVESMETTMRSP
Method: as §1, §2, §3

[8] = target: T6, NS3 protease S139A/A156T (Hepatitis C virus genotype 1b, UniProt P26663, A1182T/S1165A); assay: ITC binding to Zn^+2-free NS3 protease, S139A/A156T; conditions: 25°C, 100 mM sodium acetate, 2 mM EDTA, pH 5; relative error 15%
T6 construct: The N-terminal domain from full-length NS3 protein corresponding to NS3 protease was expressed and purified; made in house
T6 sequence (P26663 1027-1208 S1165A/A1182T): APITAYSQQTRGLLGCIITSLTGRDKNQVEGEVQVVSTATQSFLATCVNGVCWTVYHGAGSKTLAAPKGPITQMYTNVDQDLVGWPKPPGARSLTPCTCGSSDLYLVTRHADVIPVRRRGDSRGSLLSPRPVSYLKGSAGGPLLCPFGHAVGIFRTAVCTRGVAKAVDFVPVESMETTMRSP
Method: as §1, §2, §3

[9] = tested on: NS3 protease; conditions: assuming pseudo-first order association, from kobs of ref 23
[10] = target: NS3 protease; conditions: read-out: apparent dissociation constant for the NS3-zinc interaction; cited from earlier work
[11] = target: NS3 protease; conditions: read-out: dissociation constant for the NS3-zinc interaction; ITC, pH 5; cited from earlier work
[12] = tested on: NS3 protease; conditions: pH 7.5; cited from earlier work
[13] = ratio of CC50 to EC50 in Huh 5-2 cells
[14] = Huh 5-2 cells, 3 days proliferation, relative error 15%

| Compound | EC50 [1] [µM] | CC50/EC50 [1, 13] | CC50 [2, 14] [µM] | Kd [3] [µM] | Kd [4] [µM] | Kd [5] [µM] | Kd [6] [µM] | CC50 at 3 days [2, 14] [µM] | CC50/EC50 [1] | CC50 [2] [µM] | Kd [7] [µM] | Kd [8] [µM] | kon [9] [M⁻¹ s⁻¹] | Kd [10] [µM] | Kd [11] [µM] | apparent association rate constant, kobs [12] |
| --- | --- | --- | --- | --- | --- | --- | --- | --- | --- | --- | --- | --- | --- | --- | --- | --- |
| COC(=O)Nc1nc2ccc(C(=O)c3cccs3)cc2[nH]1 [Compound 1] | 0.03 | >4000 | > 120 | 1.9 | 6.5 | 5.3 | 2.6 | – | – | – | – | – | – | – | – | – |
| CC[C@@]1(O)C(=O)OCc2c1cc1n(c2=O)Cc2cc3ccccc3nc2-1 [Compound 3] | 0.03 | – | – | 2.5 | – | – | – | 8 | – | – | – | – | – | – | – | – |
| Nc1c2c(nc3ccccc13)CCCC2 [Compound 5] | 60 | – | – | 1.7 | 5.5 | 5.9 | 8.5 | – | >2 | > 120 | 32 | 27 | – | – | – | – |
| COC(=O)[C@H]1[C@H]2C[C@@H]3c4[nH]c5cc(OC)ccc5c4CCN3C[C@H]2C[C@@H](OC(=O)/C=C/c2cc(OC)c(OC)c(OC)c2)[C@@H]1OC [Compound 6] | 20 | >6 | > 120 | 40 | 24 | 61 | 36 | – | – | – | 23 | 45 | – | – | – | – |
| CC(=O)C1CCC2C3C=CC4=CC(=O)CCC4(C)C3CCC12C (centres unmarked) [Compound 7] | 2 | >60 | > 120 | 16 | 5.7 | 16 | 6.5 | – | – | – | 4.2 | 5.8 | – | – | – | – |
| CCOc1ccc(Cc2nccc3cc(OCC)c(OCC)cc23)cc1OCC [Compound 8] | 4 | 15 | 60 | 31 | 34 | 9.2 | 16 | – | – | – | 42 | 22 | – | – | – | – |
| zinc | – | – | – | – | – | – | – | – | – | – | – | – | < 1400 | ~1 | 0.5 | around 0.014 s^−1 |
